Assay results published in patent US20240239806A1, “COMPOUNDS, COMPOSITIONS AND METHODS OF TREATING DISORDERS” (Chengdu Anticancer Bioscience, Ltd., priority 2021, published 2024).

Tests used:
[1] = system: colon cancer cell line HCT116; test: Soft agar colony formation assay; type: cell-based, human
NCI-H2170 = test: MTT assay of cellular proliferation; type: cell-based; settings: Homo sapiens, 50% inhibition of cellular proliferation
How it was run: (§1)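 MTT viability readout, formazan OD 570 nm after 3-4 h dye incubation. Cells seeded 15-24 h to 20-30% confluence, dosed 1 nM-30 μM. DMEM/5% FBS, 37 °C, 5% CO2. EC50 = concentration giving 50% proliferation inhibition.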

NCI-N87 = test: MTT assay of cellular proliferation; type: cell-based; settings: Homo sapiens, 50% inhibition of cellular proliferation
How it was run: as §1

[2] = system: human lung cancer cell line NCI-H23; test: Soft agar colony formation assay; type: cell-based
From the text: Measuring the ability of cells to grow in soft agar has been popularly believed as the gold standard assay for cellular transformation in vitro. In the Soft Agar Assay, cells grow from single cells to cell colonies in a semi-solid agar solution that keeps them away from the solid surface and allows growth in an anchorage-independent way.
The anchorage-independent growth of cells is one of the hallmarks of cancer cells. Normal epithelial cells are supported by basement membranes that provide survival and proliferative signals while undergo a type of apoptosis called anoikis when lose their attachment to the extracellular matrix. Cancer cells, in contrast, evade detachment-induced apoptosis, leading to uncontrolled proliferation and metastasis. The Soft Agar Colony Formation Assay allows testing of the therapeutic efficacy of compounds against anchorage-independent 3D growth of cancer cells in vin. The assay was performed in 6-well plates with two layers of agar. For the first, 0.75% agar in DMEM medium was melted in a microwave oven and poured to form a bottom layer. Once solidified, 10-100K cells in 1 ml of DMEM containing 0.35% agar was added to form the top layer, which was later covered with 0.5 ml of DMEM. Cell culture medium was changed once every two days until colonies were ready to photograph. […]

Compound | EC50 (NCI-H2170) | growth in soft agar [1] | EC50 (NCI-N87) | growth in soft agar [2]
COc1cc(OC)cc(Oc2ccnc3ccccc23)c1 [Compound 7, 4-(3,5-dimethoxyphenoxy)quinoline] | – | suppressed the growth | – | –
COC(=O)c1cc(OC)cc(Oc2ncnc3cc(OC)c(OC)cc23)c1 [Compound 29] | 1 to 1000 nM | – | 1 to 1000 nM | –
COC(=O)c1cc(Oc2ncnc3ccsc23)cc(C(=O)OC)c1 [Compound 39, dimethyl 5-(thieno[3,2-d]pyrimidin-4-yloxy)isophthalate] | 1000 to 10000 nM | – | 1 to 1000 nM | completely blocked the growth

Further lines, with some results ahead:

EC50 (NCI-H2170) | Compound | growth in soft agar [1] | EC50 (NCI-N87) | growth in soft agar [2]
1 to 1000 nM | COC(=O)c1cc(OC)cc(Oc2ncnc3cc[nH]c23)c1 [Compound 34, methyl 3-((5H-pyrrolo[3,2-d]pyrimidin-4-yl)oxy)-5-methoxybenzoate] | – | 1 to 1000 nM | –
1 to 1000 nM | COC(=O)c1cc(Oc2ncnc3cc[nH]c23)cc(C(=O)OC)c1 [Compound 36, dimethyl 5-((5H-pyrrolo[3,2-d]pyrimidin-4-yl)oxy)isophthalate] | – | 1 to 1000 nM | completely blocked the growth
1 to 1000 nM | COC(=O)c1cc(OC)cc(Oc2ncnc3ccsc23)c1 [Compound 37, methyl 3-methoxy-5-(thieno[3,2-d]pyrimidin-4-yloxy)benzoate] | – | 1 to 1000 nM | –
